Source: ChEMBL document CHEMBL4007507 (J Med Chem, 2017)
Calls of active or inactive are those of the source. The calls are words filed in the database; no cut-off is given here.

How the values were obtained:
[1] = system: SJSA-1; test: cells; details: Homo sapiens
[2] = in vivo; details: rat, iv, 10 mg/kg
[3] = in vivo; details: rat, po, 25 mg/kg
[4] = in vivo; details: rat, po, 25 mg/kg; remark: listed apart in the source
[5] = in vivo; details: rat, iv, 10 mg/kg; remark: listed apart in the source
[6] = system: SJSA-1; details: Homo sapiens
[7] = in vivo; details: rat, po, 25 mg/kg; remark: listed apart in the source
[8] = in vivo; details: rat, iv, 10 mg/kg; remark: listed apart in the source
[9] = system: SJSA-1; details: Homo sapiens, 50 mg/kg
[10] = system: HCT-116; test: cells; details: Homo sapiens
[11] = system: SAOS-2; test: cells; details: Homo sapiens
[12] = system: PC-3; test: cells; details: Homo sapiens
[13] = system: SJSA-1; details: Homo sapiens, 30 mg/kg
[14] = system: RS4-11; details: Homo sapiens
[15] = system: HCT-116; test: cells; details: Homo sapiens; remark: listed apart in the source
[16] = system: LNCaP; test: cells; details: Homo sapiens
[17] = system: RS4-11; test: cells; details: Homo sapiens
[18] = system: SJSA-1; details: Homo sapiens, 100 mg/kg
[19] = in vivo; details: rat, iv, 5 mg/kg
[20] = in vivo; details: rat, iv, 5 mg/kg; remark: listed apart in the source
[21] = physchem; details: 1:1 MeOH/H2O solution
[22] = in vivo; details: rat, iv, 5 mg/kg; remark: listed apart in the source
[23] = physchem; details: 1:1 CH3CN/H2O solution
[24] = physchem; details: cell culture media

Structure (SMILES): O=C(O)Cc1ccc(NC(=O)[C@@H]2NC3(CCCCC3)[C@@]3(C(=O)Nc4cc(Cl)ccc43)[C@H]2c2cccc(Cl)c2F)cc1
- IC50 [1]: 760 nM

Structure (SMILES): O=C(NC12CCC(C(=O)O)(CC1)CC2)[C@@H]1NC2(CCC(F)(F)CC2)[C@@]2(C(=O)Nc3cc(Cl)ccc32)[C@H]1c1cccc(Cl)c1F
- IC50 [1]: 170 nM

Structure (SMILES): O=C(NC12CC(C(=O)O)(C1)C2)[C@@H]1NC2(CCCCC2)[C@@]2(C(=O)Nc3cc(Cl)ccc32)[C@H]1c1cccc(Cl)c1F
- IC50 [1]: 540 nM

Structure (SMILES): Cc1nnc([C@H]2[C@H](c3cccc(Cl)c3F)[C@]3(C(=O)Nc4cc(Cl)ccc43)C3(CCCCC3)N2C)s1
- IC50 [1]: 3000 nM

Structure (SMILES): CC1(C)CCC2(CC1)N[C@@H](C(=O)Nc1ccc(C(=O)O)cc1)[C@H](c1cccc(Cl)c1F)[C@]21C(=O)Nc2cc(Cl)ccc21
- IC50 [1]: 13 nM
- AUC [2]: 14800 ng·h/mL
- half-life [3]: 4.5 h
- AUC [4]: 10200 ng·h/mL
- clearance [5]: 11.5 mL/min/kg
- TGI [6]: Dose-dependent effect
- Cmax [7]: 968 ng/mL
- Vd [8]: 2.45 L/kg
- TGI [9]: Active

Structure (SMILES): O=C(NC1CCS(=O)(=O)CC1)[C@@H]1NC2(CCCCC2)[C@@]2(C(=O)Nc3cc(Cl)ccc32)[C@H]1c1cccc(Cl)c1F
- IC50 [1]: 540 nM

Structure (SMILES): O=C(O)c1ccc(NC(=O)[C@@H]2NC3(CCCCC3)[C@@]3(C(=O)Nc4cc(Cl)ccc43)[C@H]2c2cccc(Cl)c2F)c(F)c1
- IC50 [1]: 230 nM

Structure (SMILES): CCN1[C@@H](C(=O)NC23CCC(C(=O)O)(CC2)CC3)[C@H](c2cccc(Cl)c2F)[C@]2(C(=O)Nc3cc(Cl)ccc32)C12CCCCC2 [ALRIZOMADLIN]
- IC50 [1]: 60 nM
- AUC [2]: 38300 ng·h/mL
- half-life [3]: 4.6 h
- IC50 [10]: 8000 nM
- AUC [4]: 39100 ng·h/mL
- IC50 [11]: 22700 nM
- IC50 [12]: 22000 nM
- clearance [5]: 4.28 mL/min/kg
- TGI [13]: Active
- TGI [14]: Dose-dependent effect
- IC50 [15]: 104 nM
- IC50 [16]: 18 nM
- Vd [8]: 1.25 L/kg

Structure (SMILES): CN1[C@@H](C(=O)NC23CCC(C(=O)O)(CC2)CC3)[C@H](c2cccc(Cl)c2F)[C@]2(C(=O)Nc3cc(Cl)ccc32)C12CCCCC2
- AUC [2]: 28800 ng·h/mL
- half-life [3]: 3.9 h
- AUC [4]: 35200 ng·h/mL
- clearance [5]: 5.87 mL/min/kg
- TGI [13]: Active
- Vd [8]: 1.1 L/kg

Structure (SMILES): O=C(N[C@H]1C[C@H](C(=O)O)C1)[C@@H]1NC2(CCCCC2)[C@@]2(C(=O)Nc3cc(Cl)ccc32)[C@H]1c1cccc(Cl)c1F
- IC50 [1]: 220 nM

Structure (SMILES): O=C(O)c1ccc(NC(=O)[C@@H]2NC3(CCCCC3)[C@@]3(C(=O)Nc4cc(Cl)ccc43)[C@H]2c2cccc(Cl)c2F)o1
- IC50 [1]: 6200 nM

Structure (SMILES): O=C(O)CCCNC(=O)[C@@H]1NC2(CCCCC2)[C@@]2(C(=O)Nc3cc(Cl)ccc32)[C@H]1c1cccc(Cl)c1F
- IC50 [1]: 1400 nM

Structure (SMILES): CN1[C@@H](c2nc(C(=O)O)co2)[C@H](c2cccc(Cl)c2F)[C@]2(C(=O)Nc3cc(Cl)ccc32)C12CCCCC2
- IC50 [1]: > 10000 nM

Structure (SMILES): CS(=O)(=O)NC(=O)C12CCC(NC(=O)[C@@H]3NC4(CCCCC4)[C@@]4(C(=O)Nc5cc(Cl)ccc54)[C@H]3c3cccc(Cl)c3F)(CC1)CC2
- IC50 [1]: 370 nM

Structure (SMILES): CN1[C@@H](c2nc(C(=O)O)cs2)[C@H](c2cccc(Cl)c2F)[C@]2(C(=O)Nc3cc(Cl)ccc32)C12CCCCC2
- IC50 [1]: > 10000 nM

Structure (SMILES): O=C(NC12CCC(C(=O)O)(CC1)CC2)[C@@H]1NC2(CCCCC2)[C@@]2(C(=O)Nc3cc(Cl)ccc32)[C@H]1c1cccc(Cl)c1F
- IC50 [1]: 89 nM
- AUC [2]: 82200 ng·h/mL
- half-life [3]: 4.3 h
- IC50 [10]: 14000 nM
- IC50 [11]: 26700 nM
- IC50 [17]: 62 nM
- IC50 [12]: 12300 nM
- clearance [5]: 1.98 mL/min/kg
- TGI [18]: Active
- IC50 [15]: 137 nM
- IC50 [16]: 36 nM
- Vd [8]: 0.734 L/kg
- TGI [9]: Active

Structure (SMILES): NS(=O)(=O)c1ccc(NC(=O)[C@@H]2NC3(CCCCC3)[C@@]3(C(=O)Nc4cc(Cl)ccc43)[C@H]2c2cccc(Cl)c2F)cc1
- IC50 [1]: 11200 nM

Structure (SMILES): COc1cc(C(N)=O)ccc1NC(=O)[C@@H]1NC2(CCCCC2)[C@@]2(C(=O)Nc3cc(Cl)ccc32)[C@H]1c1cccc(Cl)c1F
- IC50 [1]: 120 nM

Structure (SMILES): Cc1nnc([C@H]2[C@H](c3cccc(Cl)c3F)[C@]3(C(=O)Nc4cc(Cl)ccc43)C3(CCCCC3)N2C)o1
- IC50 [1]: 5000 nM

Structure (SMILES): CS(=O)(=O)c1ccc(NC(=O)[C@@H]2NC3(CCCCC3)[C@@]3(C(=O)Nc4cc(Cl)ccc43)[C@H]2c2cccc(Cl)c2F)cc1
- IC50 [1]: 140 nM

Structure (SMILES): Cc1oc([C@H]2[C@H](c3cccc(Cl)c3F)[C@]3(C(=O)Nc4cc(Cl)ccc43)C3(CCCCC3)N2C)nc1C(=O)O
- IC50 [1]: 6000 nM

Structure (SMILES): O=C(N[C@H]1CC[C@H](C(=O)O)CC1)[C@@H]1NC2(CCCCC2)[C@@]2(C(=O)Nc3cc(Cl)ccc32)[C@H]1c1cccc(Cl)c1F
- IC50 [1]: 150 nM
- TGI [9]: Active

Structure (SMILES): COc1cc(C(=O)O)ccc1NC(=O)[C@@H]1NC2(CCCCC2)[C@@]2(C(=O)Nc3cc(Cl)ccc32)[C@H]1c1cccc(Cl)c1F
- IC50 [1]: 61 nM

Structure (SMILES): O=C(O)c1ccc(NC(=O)[C@@H]2NC3(CCCCC3)[C@@]3(C(=O)Nc4cc(Cl)ccc43)[C@H]2c2cccc(Cl)c2F)cc1
- AUC [2]: 8630 ng·h/mL
- half-life [3]: 4 h
- AUC [4]: 6800 ng·h/mL
- clearance [5]: 19.3 mL/min/kg
- Cmax [7]: 1550 ng/mL
- Vd [8]: 2.14 L/kg
- TGI [9]: Active

Structure (SMILES): CN1[C@@H](c2nc(CC(=O)O)cs2)[C@H](c2cccc(Cl)c2F)[C@]2(C(=O)Nc3cc(Cl)ccc32)C12CCCCC2
- IC50 [1]: 2690 nM

Structure (SMILES): Cc1noc([C@H]2[C@H](c3cccc(Cl)c3F)[C@]3(C(=O)Nc4cc(Cl)ccc43)C3(CCCCC3)N2C)n1
- IC50 [1]: 12100 nM

Structure (SMILES): CS(=O)(=O)NC(=O)[C@@H]1NC2(CCCCC2)[C@@]2(C(=O)Nc3cc(Cl)ccc32)[C@H]1c1cccc(Cl)c1F
- IC50 [1]: 8900 nM

Structure (SMILES): O=C(NC[C@H]1CC[C@H](C(=O)O)CC1)[C@@H]1NC2(CCCCC2)[C@@]2(C(=O)Nc3cc(Cl)ccc32)[C@H]1c1cccc(Cl)c1F
- IC50 [1]: 1900 nM

Structure (SMILES): O=C(O)c1cccc(NC(=O)[C@@H]2NC3(CCCCC3)[C@@]3(C(=O)Nc4cc(Cl)ccc43)[C@H]2c2cccc(Cl)c2F)c1
- IC50 [1]: 760 nM

Structure (SMILES): O=C(O)c1ccc(NC(=O)[C@@H]2NC3(CCCCC3)[C@@]3(C(=O)Nc4cc(Cl)ccc43)[C@H]2c2cccc(Cl)c2F)cn1
- IC50 [1]: 240 nM

Structure (SMILES): O=C(O)c1ccc(NC(=O)[C@@H]2NC3(CCCCC3)[C@@]3(C(=O)Nc4cc(Cl)ccc43)[C@H]2c2cccc(Cl)c2F)cc1F
- IC50 [1]: 190 nM

Structure (SMILES): CC(C)(C)C[C@@H]1N[C@@H](C(=O)N[C@H]2CC[C@H](O)CC2)[C@H](c2cccc(Cl)c2F)[C@]12C(=O)Nc1cc(Cl)ccc12 [SAR-405838]
- half-life [3]: 1.6 h
- AUC [19]: 4630 ng·h/mL
- clearance [20]: 17.2 mL/min/kg
- remaining at 168 h [21]: 93 to 96%
- Vd [22]: 2.98 L/kg
- remaining at 168 h [23]: 93 to 96%
- remaining at 168 h [24]: 93 to 96%
- TGI [9]: Active

Structure (SMILES): CC(=O)N1CC(NC(=O)[C@@H]2NC3(CCCCC3)[C@@]3(C(=O)Nc4cc(Cl)ccc43)[C@H]2c2cccc(Cl)c2F)C1
- IC50 [1]: 240 nM

Structure (SMILES): CS(=O)(=O)NC(=O)c1ccc(NC(=O)[C@@H]2NC3(CCCCC3)[C@@]3(C(=O)Nc4cc(Cl)ccc43)[C@H]2c2cccc(Cl)c2F)cc1
- IC50 [1]: 5800 nM

Structure (SMILES): CC1(C)CCC2(CC1)N[C@@H](C(=O)N[C@H]1CC[C@H](O)CC1)[C@H](c1cccc(Cl)c1F)[C@]21C(=O)Nc2cc(Cl)ccc21
- IC50 [1]: 48 nM

Structure (SMILES): O=C(N[C@H]1CC[C@@H](C(=O)O)CC1)[C@@H]1NC2(CCCCC2)[C@@]2(C(=O)Nc3cc(Cl)ccc32)[C@H]1c1cccc(Cl)c1F
- IC50 [1]: 1740 nM

Structure (SMILES): COc1cc(NC(=O)[C@@H]2NC3(CCCCC3)[C@@]3(C(=O)Nc4cc(Cl)ccc43)[C@H]2c2cccc(Cl)c2F)ccc1C(=O)O
- IC50 [1]: 120 nM
